# From patent publication US9187469B2, “Morpholinylbenzotriazines for use in cancer therapy” (Merck Patent GmbH, priority 2011, dated 2015)
# Biological target: T1, DNA-PK (Homo sapiens (Human), UniProt P78527)
# Experiment: DNA-PK biochemical assay (FlashPlate kinase assay, Example 4)
# Conditions: 5 μM ATP; read-out: Bonding DNA-PK IC50
# Protocol: The kinase assay was carried out in streptavidin-coated […] microtitre FlashPlates®. To this end, 1.5 μg of the DNA-PK/protein complex and 100 ng of biotinylated substrate, such as, for example, PESQEAFADLWKK biotin-NH2 (“biotin-DNA-PK peptide”), in a total volume of 36.5 μl (34.25 mM HEPES/KOH, 7.85 mM Tris-HCl, 68.5 mM KCl, 5 μM ATP, 6.85 mM MgCl2, 0.5 mM EDTA, 0.14 mM EGTA, 0.69 mM DTT, pH 7.4), were incubated at room temperature for 90 min with 500 ng of DNA from calf thymus, 0.1 μCi of 33P-ATP and 1.8% of DMSO per well with or without the test compound. The reaction was stopped using 50 μl/well of 200 mM EDTA. After incubation for a further 30 min at room temperature, the liquid was removed. Each well was washed three times with 100 μl of 0.9% sodium chloride solution. A non-specific reaction (blank value) was determined using 10 μM of a proprietary kinase inhibitor. The radioactivity measurement was carried out by means of a TopCount. IC50 values were calculated in RS1 (Kashishian et al. (2003) Molecular Cancer Therapeutics 1257) and are compiled in Table 1.
row,SMILES,IC50
1,"CC(C)(C)n1cc([C@@H](O)[C@H]2CCCN(c3nnnc4cc(N5CCOCC5)ccc34)C2)cn1 [compound 19, (S)-(1-tert-Butyl-1H-pyrazol-4-yl)-[(S)-1-(7-morpholin-4-yl-benzo[d]-1,2,3-triazin-4-yl)-piperidin-3-yl]-methanol]",< 100 nM
2,"O[C@@H](c1nccs1)[C@@H]1CCCN(c2nnnc3cc(N4CCOCC4)ccc23)C1 [compound 3, (R)-[(R)-1-(7-Morpholin-4-yl-benzo[d]-1,2,3-triazin-4-yl)-piperidin-3-yl]-thiazol-2-yl-methanol]",< 100 nM
3,"O[C@@H](c1nccs1)[C@H]1CCCN(c2nnnc3cc(N4CCOCC4)ccc23)C1 [compound 1, (R)-[(S)-1-(7-Morpholin-4-yl-benzo[d]-1,2,3-triazin-4-yl)-piperidin-3-yl]-thiazol-2-yl-methanol]",< 100 nM
4,"Cc1cnc([C@@H](O)[C@H]2CCCN(c3nnnc4cc(N5CCOCC5)ccc34)C2)s1 [No. 12, (S)-(5-Methyl-thiazol-2-yl)-[(S)-1-(7-morpholin-4-ylbenzo[d]-1,2,3-triazin-4-yl)-piperidin-3-yl]-methanol]",< 100 nM
5,"Cc1csc([C@H](O)[C@@H]2CCCN(c3nnnc4cc(N5CCOCC5)ccc34)C2)n1 [compound 7, (R)-(4-Methyl-thiazol-2-yl)-[(R)-1-(7-morpholin-4-ylbenzo[d]-1,2,3-triazin-4-yl)-piperidin-3-yl]-methanol]",< 100 nM
6,"COc1ccc([C@@H](O)[C@H]2CCCN(c3nnnc4cc(N5CCOCC5)ccc34)C2)nn1 [compound 14, (S)-(6-Methoxy-pyridazin-3-yl)-[(S)-1-(7-morpholin-4-yl-benzo[d]-1,2,3-triazin-4-yl)-piperidin-3-yl]-methanol]",< 100 nM
7,"CC(C)n1cc([C@@H](O)[C@H]2CCCN(c3nnnc4cc(N5CCOCC5)ccc34)C2)cn1 [compound 18, (S)-(1-Isopropyl-1H-pyrazol-4-yl)-[(S)-1-(7-morpholin-4-yl-benzo[d]-1,2,3-triazin-4-yl)-piperidin-3-yl]-methanol]",< 100 nM
8,"COc1ccc([C@H](O)[C@H]2CCCN(c3nnnc4cc(N5CCOCC5)ccc34)C2)nn1 [compound 15, (R)-(6-Methoxy-pyridazin-3-yl)-[(S)-1-(7-morpholin-4-yl-benzo[d]-1,2,3-triazin-4-yl)-piperidin-3-yl]-methanol]",< 100 nM
9,"Cc1cnc([C@H](O)[C@H]2CCCN(c3nnnc4cc(N5CCOCC5)ccc34)C2)s1 [compound 13, (R)-(5-Methyl-thiazol-2-yl)-[(S)-1-(7-morpholin-4-ylbenzo[d]-1,2,3-triazin-4-yl)-piperidin-3-yl]-methanol]",< 100 nM
10,"Cc1nc([C@H](O)[C@@H]2CCCN(c3nnnc4cc(N5CCOCC5)ccc34)C2)sc1C [compound 10, (R)-(4,5-Dimethyl-thiazol-2-yl)-[(R)-1-(7-morpholin-4-ylbenzo[d]-1,2,3-triazin-4-yl)-piperidin-3-yl]-methanol]",< 100 nM
11,"C[C@](O)(c1nccs1)[C@H]1CCCN(c2nnnc3cc(N4CCOCC4)ccc23)C1 [compound 8, (R)-1-[(S)-1-(7-Morpholin-4-yl-benzo[d]-1,2,3-triazin-4-yl)-piperidin-3-yl]-1-thiazol-2-yl-ethanol]",< 100 nM
12,"Cc1nc([C@@H](O)[C@H]2CCCN(c3nnnc4cc(N5CCOCC5)ccc34)C2)sc1C [compound 11, (S)-(4,5-Dimethyl-thiazol-2-yl)-[(S)-1-(7-morpholin-4-ylbenzo[d]-1,2,3-triazin-4-yl)-piperidin-3-yl]-methanol]",< 100 nM
13,"O[C@H](c1nccs1)[C@@H]1CCCN(c2nnnc3cc(N4CCOCC4)ccc23)C1 [compound 2, (S)-[(R)-1-(7-Morpholin-4-yl-benzo[d]-1,2,3-triazin-4-yl)-piperidin-3-yl]-thiazol-2-yl-methanol]",< 100 nM
14,"Cc1csc([C@H](O)[C@H]2CCCN(c3nnnc4cc(N5CCOCC5)ccc34)C2)n1 [compound 5, (R)-(4-Methyl-thiazol-2-yl)-[(S)-1-(7-morpholin-4-ylbenzo[d]-1,2,3-triazin-4-yl)-piperidin-3-yl]-methanol]",< 100 nM
15,"Cc1csc([C@@H](O)[C@H]2CCCN(c3nnnc4cc(N5CCOCC5)ccc34)C2)n1 [compound 4, (S)-(4-Methyl-thiazol-2-yl)-[(S)-1-(7-morpholin-4-ylbenzo[d]-1,2,3-triazin-4-yl)-piperidin-3-yl]-methanol]",< 100 nM
16,"CCn1cc([C@@H](O)[C@H]2CCCN(c3nnnc4cc(N5CCOCC5)ccc34)C2)cn1 [compound 20, (S)-(1-Ethyl-1H-pyrazol-4-yl)-[(S)-1-(7-morpholin-4-ylbenzo[d]-1,2,3-triazin-4-yl)-piperidin-3-yl]-methanol]",< 100 nM
17,"COc1ccc([C@@H](O)[C@H]2CCCN(c3nnnc4cc(N5CCOCC5)ccc34)C2)cn1 [compound 16, (S)-(6-Methoxy-pyridin-3-yl)-[(S)-1-(7-morpholin-4-ylbenzo[d]-1,2,3-triazin-4-yl)-piperidin-3-yl]-methanol]",< 100 nM
18,"C[C@@](O)(c1nccs1)[C@H]1CCCN(c2nnnc3cc(N4CCOCC4)ccc23)C1 [compound 9, (S)-1-[(S)-1-(7-Morpholin-4-yl-benzo[d]-1,2,3-triazin-4-yl)-piperidin-3-yl]-1-thiazol-2-yl-ethanol]",< 100 nM
19,"Cc1csc([C@@H](O)[C@@H]2CCCN(c3nnnc4cc(N5CCOCC5)ccc34)C2)n1 [compound 6, (S)-(4-Methyl-thiazol-2-yl)-[(R)-1-(7-morpholin-4-ylbenzo[d]-1,2,3-triazin-4-yl)-piperidin-3-yl]-methanol]",< 100 nM
20,"COc1ccc([C@H](O)[C@H]2CCCN(c3nnnc4cc(N5CCOCC5)ccc34)C2)cn1 [compound 17, (R)-(6-Methoxy-pyridin-3-yl)-[(S)-1-(7-morpholin-4-ylbenzo[d]-1,2,3-triazin-4-yl)-piperidin-3-yl]-methanol]",< 100 nM

# Same assay, conditions: 5 μM ATP; read-out: biochemical activity (assay from Example 4)
row,SMILES,IC50
1,"O[C@H](c1nccs1)[C@H]1CCCN(c2nnnc3cc(N4CCOCC4)ccc23)C1 [(S)-[(S)-1-(7-morpholin-4-ylbenzo[d]-1,2,3-triazin-4-yl)piperidin-3-yl]thiazol-2-ylmethanol]",1 nM

# System: HCT116 cells
# Experiment: Cellular colony growth test with X-ray irradiation (Example 6)
# Assay type: cell-based
# Conditions: Homo sapiens, HCT-116; HCT116, at 4.8 Gray
# Protocol: The colorectal carcinoma cell line HCT116 was cultivated in MEM alpha medium with 10% of foetal calf serum, 1 mM sodium pyruvate and 2 mM glutamine at 37° C. and 10% CO2. The cells were detached from the base of the culture vessels with the aid of trypsine/EDTA, centrifuged off in centrifuge tubes and taken up in fresh medium. The cell density was subsequently determined. 300 cells were sown out in 6-well cell culture plates in 2 ml of culture medium and cultivated overnight. Next day, the cells were treated with test substances for one hour before the cell culture plates were treated with defined doses of X-rays (in general 0, 2.4, 4.8, 12 Gray; irradiation instrument: Faxitron RX-650; Faxitron X-Ray LLC, USA). In order to determine the dose/effect relationships, the cells were treated with various concentrations of a test substance. After irradiation, the cells are cultivated for a further 24 hours in the presence of the test substance, the culture medium was then replaced with culture medium without test substance, and the cells were cultivated for a further 6-8 days. The cell colonies formed were subsequently stained with the aid of Crystal Violet and counted in a colony counter (Gelcount, Oxford Optronics, UK). Dose/effect curves, in particular IC50 values, were determined using a curve adaptation function for nonlinear dose/effect relationships.
row,SMILES,IC50
1,"Cc1cnc([C@@H](O)[C@H]2CCCN(c3nnnc4cc(N5CCOCC5)ccc34)C2)s1 [No. 12, (S)-(5-Methyl-thiazol-2-yl)-[(S)-1-(7-morpholin-4-ylbenzo[d]-1,2,3-triazin-4-yl)-piperidin-3-yl]-methanol]",< 400 nM

# Biological target: T1, DNA-PK
# Experiment: not given
# Conditions: Hardcastle et al. (2005); cited from earlier work
row,SMILES,IC50
1,O=c1cc(N2CCOCC2)oc2c(-c3cccc4c3sc3ccccc34)cccc12 [NU-7441],20 nM

# System: not given
# Experiment: not given
# Conditions: cited from earlier work
row,SMILES,solubility profile in aqueous medium
1,CCN1CCN(CC(=O)Nc2ccc(-c3cccc4c(=O)cc(N5CCOCC5)oc34)c3sc4ccccc4c23)CC1 [KU-0060648],improved solubility profile

# System: kinases of the PI3K isoenzyme family
# Experiment: not given
# Conditions: cited from earlier work
row,SMILES,inhibition of kinases of the PI3K isoenzyme family
1,CCN1CCN(CC(=O)Nc2ccc(-c3cccc4c(=O)cc(N5CCOCC5)oc34)c3sc4ccccc4c23)CC1 [KU-0060648],potently inhibited

# System: mammal cells
# Experiment: not given
# Conditions: Rosenzweig et al. (1999); cited from earlier work
row,SMILES,increase in sensitivity to ionising irradiation in cellular terms
1,O=c1cc(N2CCOCC2)oc2c(-c3ccccc3)cccc12 [LY294002],weak increase

# System: DNA-PK phosphorylation at serine 2056 in HCT116 cells
# Experiment: Cellular DNA-PK phosphorylation at serine 2056 (Example 5)
# Assay type: cell-based
# Conditions: 10 μM bleomycin, six hours
# Protocol: HCT116 cells were cultivated in MEM alpha medium with 10% of foetal calf serum, 1 mM sodium pyruvate and 2 mM glutamine at 37° C. and 10% CO2. The cells were detached from the base of the culture vessels with the aid of trypsine/EDTA, centrifuged off in centrifuge tubes and taken up in fresh medium. The cell density was subsequently determined. 200,000 cells were sown per cavity of a 12-well cell culture plate in 1 ml of culture medium and cultivated overnight. Next day, 10 μM bleomycin and test substances in fresh culture medium was added to the cells and these were cultivated for a further six hours. Cell lysis was subsequently carried out. The cell lysates were investigated by SDS polyacrylamide gel electrophoresis by means of DNA-PK-specific antibodies (Abcam ab13852: total DNA-PK; ab18192: phosphoserine 2056 DNA-PK) and Western Blotting. The enzymatic reaction was developed with the aid of a chemiluminescence reagent. The chemiluminescence was recorded with the aid of a documentation system (VersaDoc™, Bio-Rad, USA) and evaluated densitometrically with the aid of instrument-specific software (Quantity One). The signals with phospho-DNA-PK-specific antibodies were standardised to the signal with the antibody against the total protein DNA-PK. IC50 values and percentage inhibition data were determined by referencing to the signal level of the bleomycin-treated vehicle control group.
row,SMILES,cellular activity (assay from Example 5)
1,"O[C@H](c1nccs1)[C@H]1CCCN(c2nnnc3cc(N4CCOCC4)ccc23)C1 [(S)-[(S)-1-(7-morpholin-4-ylbenzo[d]-1,2,3-triazin-4-yl)piperidin-3-yl]thiazol-2-ylmethanol]",sub-micromolar
